Data as given in article PMC7327383, “The affinity and selectivity of α‐adrenoceptor antagonists, antidepressants, and antipsychotics for the human α1A, α1B, and α1D‐adrenoceptors” (Pharmacology Research & Perspectives, 2020).
Read-outs that look alike come from different tables or passages of the source.

Key:
human α1A-adrenoceptor = molecular target: T1, human α1A-adrenoceptor (Homo sapiens, UniProt P35348); experiment: [3H]prazosin whole-cell competition binding, CHO-α1A cells; conditions: for Kd: single-component inhibition curve, given as log KD (negative), mean ± SE mean, read-out: Log KD α1A (converted)
T1 construct: CHO cells stably expressing either the full‐length human α1A, α1B, or α1D‐adrenoceptor
T1 sequence (P35348 1-466): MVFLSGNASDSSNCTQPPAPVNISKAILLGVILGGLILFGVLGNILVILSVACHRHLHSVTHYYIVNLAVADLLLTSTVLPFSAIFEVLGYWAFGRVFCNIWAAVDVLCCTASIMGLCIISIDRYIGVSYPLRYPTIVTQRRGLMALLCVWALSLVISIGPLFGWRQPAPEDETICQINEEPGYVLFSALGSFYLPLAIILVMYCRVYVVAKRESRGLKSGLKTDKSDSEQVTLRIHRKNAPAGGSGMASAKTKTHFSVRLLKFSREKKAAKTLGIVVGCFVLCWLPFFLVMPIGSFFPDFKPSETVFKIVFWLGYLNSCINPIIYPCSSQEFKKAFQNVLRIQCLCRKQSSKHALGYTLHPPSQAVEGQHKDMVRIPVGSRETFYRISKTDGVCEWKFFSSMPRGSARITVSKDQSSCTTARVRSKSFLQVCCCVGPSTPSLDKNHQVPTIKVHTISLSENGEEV

[1] = molecular target: T2, full-length human α1D-adrenoceptor (Homo sapiens, UniProt P25100); experiment: [3H]prazosin whole-cell competition binding, CHO-α1D cells; conditions: for Kd: Log KD α1D
T2 sequence (P25100 1-572): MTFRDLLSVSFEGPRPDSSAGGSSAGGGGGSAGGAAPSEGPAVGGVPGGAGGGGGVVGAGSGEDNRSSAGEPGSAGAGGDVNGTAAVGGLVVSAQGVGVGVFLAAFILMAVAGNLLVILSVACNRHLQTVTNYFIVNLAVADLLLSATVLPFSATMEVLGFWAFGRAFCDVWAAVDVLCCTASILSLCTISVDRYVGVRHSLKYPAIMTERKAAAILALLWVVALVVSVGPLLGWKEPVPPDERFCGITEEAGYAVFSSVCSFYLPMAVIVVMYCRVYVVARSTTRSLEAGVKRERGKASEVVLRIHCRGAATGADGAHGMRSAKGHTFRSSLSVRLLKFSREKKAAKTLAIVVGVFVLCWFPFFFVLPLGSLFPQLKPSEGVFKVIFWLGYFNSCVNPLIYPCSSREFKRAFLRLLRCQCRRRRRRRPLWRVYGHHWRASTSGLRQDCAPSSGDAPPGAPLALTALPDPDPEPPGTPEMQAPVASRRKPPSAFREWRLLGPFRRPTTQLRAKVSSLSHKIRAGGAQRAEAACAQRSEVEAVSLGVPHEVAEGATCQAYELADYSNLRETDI

human α1B-adrenoceptor = molecular target: T3, human α1B-adrenoceptor (Homo sapiens, UniProt P35368); experiment: [3H]prazosin whole-cell competition binding, CHO-α1B cells; conditions: for Kd: single-component inhibition curve, given as log KD (negative), mean ± SE mean, read-out: Log KD α1B (converted); for Selectivity ratio α1B vs α1D: ratio of KD values, higher α1B affinity, 1.0 under vs = none
T3 construct: CHO cells stably expressing either the full‐length human α1A, α1B, or α1D‐adrenoceptor
T3 sequence (P35368 1-520): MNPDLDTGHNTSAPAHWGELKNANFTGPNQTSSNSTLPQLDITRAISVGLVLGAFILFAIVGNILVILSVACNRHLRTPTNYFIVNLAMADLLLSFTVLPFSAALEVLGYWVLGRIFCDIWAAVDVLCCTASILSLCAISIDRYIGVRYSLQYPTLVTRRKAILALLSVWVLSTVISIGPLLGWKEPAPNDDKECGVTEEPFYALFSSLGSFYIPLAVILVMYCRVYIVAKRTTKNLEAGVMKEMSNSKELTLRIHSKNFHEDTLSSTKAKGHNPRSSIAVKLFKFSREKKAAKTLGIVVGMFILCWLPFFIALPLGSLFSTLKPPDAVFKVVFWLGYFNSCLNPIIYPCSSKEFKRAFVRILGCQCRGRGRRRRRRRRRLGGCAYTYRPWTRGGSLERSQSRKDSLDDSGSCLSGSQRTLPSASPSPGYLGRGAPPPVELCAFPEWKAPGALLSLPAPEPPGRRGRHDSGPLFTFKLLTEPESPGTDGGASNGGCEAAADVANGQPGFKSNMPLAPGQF

[2] = ratio of KD values, higher α1A affinity, 1.0 under vs = none
[3] = ratio of KD values, printed under α1A = higher α1A affinity, 1.0 under vs = none
[4] = single-component inhibition curve, given as log KD (negative), mean ± SE mean
[5] = ratio of KD values, higher α1D affinity (site 1 KD)
[6] = ratio, 1 = no selectivity for a subtype over another

Molecule | Selectivity ratio α1A vs α1D (human α1A-adrenoceptor; [2]) | Selectivity ratio α1A vs α1B (human α1A-adrenoceptor; [3]) | Kd (human α1A-adrenoceptor) | Kd [1, 4] | Selectivity ratio α1B vs α1D [1, 5] | selectivity α1B vs α1D (human α1B-adrenoceptor; [6]) | Kd (human α1B-adrenoceptor) | Selectivity ratio α1B vs α1D (human α1B-adrenoceptor) | other results
COc1ccccc1N1CCN(CCCNc2cc(=O)n(C)c(=O)n2C)CC1 [Urapidil] | 6.9 fold | 51 fold | 0.0617 µM | 0.427 µM | 7.4 fold | 7.4 | 3.16 µM | – | –
COc1ccc(C(CN(C)C)C2(O)CCCCC2)cc1 (stereo not drawn) [Venlafaxime] | – | >4.9 fold | – | – | >24 fold | >24 | – | – | Log KD α1A (apparent) (human α1A-adrenoceptor; app: top concentration inhibited most but not all specific binding, curve extrapolated): −3.69 ± 0.02^app; selectivity α1A vs 1D (human α1A-adrenoceptor; [6]): 4.9; Selectivity ratio α1A vs α1D [1, 5]: 4.9 fold; Log KD α1D [1, 4]: −4.38 ± 0.16; Log KD α1B: result in words (human α1B-adrenoceptor; no inhibition of [3H]prazosin binding at maximum concentration possible): No binding to 1 mmol/L; binding at α1B (human α1B-adrenoceptor; result in words in the Log KD α1B column): No binding to 1mM; binding at α1B (result in words) (human α1B-adrenoceptor; up to the maximum concentration): No binding to 1mM
Cc1ccc(Sc2ccccc2N2CCNCC2)c(C)c1 [Vortioxetine] | 7.8 fold | 7.9 fold | 0.479 µM | 3.72 µM | – | – | 3.8 µM | 1.0 fold | –
O=C1Cc2cc(CCN3CCN(c4nsc5ccccc45)CC3)c(Cl)cc2N1 [Ziprasidone] | 34 fold | 11 fold | 0.00186 µM | 0.0631 µM | – | – | 0.02 µM | 3.2 fold | –
Labetolol | – | – | – | – | – | – | – | – | Selectivity ratio α1A vs α1B (human α1A-adrenoceptor): 26 fold; Selectivity ratio α1A vs α1D (human α1A-adrenoceptor): 16 fold; Selectivity ratio α1B vs α1D [1]: 1.6 fold; selectivity α1B vs α1D (human α1B-adrenoceptor): 1.6
